Experimental data as given in PubChem BioAssay AID724 (NMMLSC, 2007).
Activity calls are given as the source filed them. No rule for the calls is given here.

Molecular target: fMet-Leu-Phe receptor (Homo sapiens) (UniProt P21462)
Assay: FPR1 fluorescent ligand binding inhibitors, dose response, cell-based, flow cytometry, Ki from IC50 (AID 724)
Settings: FPR1-expressing cells, fluorescent ligand binding competition; for IC50: measured here: IC50 of ligand binding inhibition

fMet-Leu-Phe receptor (Homo sapiens), sequence (P21462 whole entry, looked up): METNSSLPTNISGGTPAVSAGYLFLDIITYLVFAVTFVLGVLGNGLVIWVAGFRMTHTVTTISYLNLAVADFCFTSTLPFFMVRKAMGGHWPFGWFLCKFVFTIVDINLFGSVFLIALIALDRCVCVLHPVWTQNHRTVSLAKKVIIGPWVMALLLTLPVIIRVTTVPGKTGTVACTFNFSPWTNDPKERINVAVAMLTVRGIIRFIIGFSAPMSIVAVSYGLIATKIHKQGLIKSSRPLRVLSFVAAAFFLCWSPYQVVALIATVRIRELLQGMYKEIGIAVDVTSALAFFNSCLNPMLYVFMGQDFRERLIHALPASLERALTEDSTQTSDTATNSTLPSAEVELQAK

Row | Ki | IC50 [µM] | Structure (SMILES)
1 | 6.9 µM | 10.6 | O=C(C1=C(O)C(=O)N(CCc2ccccc2)C1c1ccc(Cl)cc1)c1cccs1 (stereo not given)
2 | > 44.3 µM (inactive) |  | O=C(C1=C(O)C(=O)N(CCCN2CCOCC2)C1c1cccnc1)c1cc2ccccc2o1 (stereo not given)
3 |  | 13.6 | COc1ccc(-c2c(C(F)(F)F)oc3cc(OC(=O)c4cccnc4)ccc3c2=O)cc1OC
4 | > 44.3 µM (inactive) |  | N#Cc1c(N/C(=C\C(=O)c2ccccc2)C(=O)O)sc2c1CCC2
5 | inactive | 50.5 | COCCCN1C(=O)C(=O)/C(=C(/O)c2ccccc2)C1c1ccc(O)c(OC)c1 (stereo not given)
6 | inactive | 50.7 | CC(C)c1ccc(C2/C(=C(\O)c3ccccc3)C(=O)C(=O)N2Cc2cccnc2)cc1 (stereo not given)
7 | 4.7 µM | 7.1 | COc1ccc(C2C(C(=O)c3cccs3)=C(O)C(=O)N2CCCn2ccnc2)cc1 (stereo not given)
8 | inactive | 59.7 | COc1ccc(C2/C(=C(\O)c3ccc(C)cc3)C(=O)C(=O)N2Cc2cccnc2)c(OC)c1 (stereo not given)
9 | 1.8 µM | 2.8 | COCCN1C(=O)C(=O)/C(=C(/O)c2ccccc2)C1c1cc(OC)ccc1OC (stereo not given)
10 |  | 3.8 | Cc1nc2c(-c3ccc(Cl)cc3)c(C(F)(F)F)[nH]n2c(=O)c1Cc1ccccc1
11 | > 44.3 µM (inactive) |  | O=C(O)CCCN1C(=O)C(=O)/C(=C(/O)c2ccccc2)C1/C=C/c1ccccc1 (stereo not given)
12 | > 44.3 µM (inactive) |  | O=C1NC(c2ccc(Br)cc2)/C(=C(\O)c2ccc(Cl)cc2)C1=O (stereo not given)
13 | > 44.3 µM (inactive) |  | CCCCCCOc1cccc(N2C(=O)C(=O)/C(=C(\O)c3ccccc3)C2c2cccc(F)c2)c1 (stereo not given)
14 | > 44.3 µM (inactive) |  | O=C1C(=O)N(c2ccc(F)cc2)C(c2ccc(Br)cc2)/C1=C(/O)c1ccccc1 (stereo not given)
15 | > 44.3 µM (inactive) |  | O=C1C(=O)N(CN2CCOCC2)C(c2ccc(Br)cc2)/C1=C(\O)c1ccccc1 (stereo not given)
16 | > 44.3 µM (inactive) |  | Cc1ccc(N2C(=O)C(=O)/C(=C(\O)c3ccccc3)C2c2cccc(F)c2)cc1Br (stereo not given)
17 | > 44.3 µM (inactive) |  | COc1ccc(/C(O)=C2/C(=O)C(=O)NC2c2ccc(OC)cc2OC)cc1 (stereo not given)
18 | 6 µM | 9.2 | COc1ccc(OC)c(C2/C(=C(\O)c3ccccc3)C(=O)C(=O)N2c2cccnc2)c1 (stereo not given)
19 | > 44.3 µM (inactive) |  | O=C(C1=C(O)C(=O)N(CCCn2ccnc2)C1c1cccnc1)c1cc2ccccc2o1 (stereo not given)
20 | inactive | 17.2 | CC(=O)C1=C(O)C(=O)N(CCc2c(C)[nH]c3ccccc23)C1c1cccc(F)c1 (stereo not given)

Row | Ki | IC50 [µM] | Structure (SMILES)
21 | > 44.3 µM (inactive) |  | Cc1ccc(/C(O)=C2\C(=O)C(=O)N(c3nnc(C)s3)C2c2ccc(C(C)C)cc2)cc1 (stereo not given)
22 | 2.9 µM | 4.4 | COc1ccc(C2C(C(=O)c3cccs3)=C(O)C(=O)N2CCN2CCOCC2)c(OC)c1 (stereo not given)
23 |  | 5 | COc1ccc(-c2c(C(F)(F)F)oc3cc(OC(=O)c4ccco4)ccc3c2=O)cc1OC
24 | inactive | 47.5 | COc1ccc(C2/C(=C(\O)c3ccccc3)C(=O)C(=O)N2c2cccc(Cl)c2)c(OC)c1 (stereo not given)
25 | inactive | 31.1 | COCCCN1C(=O)C(=O)/C(=C(/O)c2ccccc2)C1c1ccc(C(C)C)cc1 (stereo not given)
26 | 6.4 µM | 9.8 | COc1ccc(C2C(C(=O)c3ccco3)=C(O)C(=O)N2CCN2CCOCC2)c(OC)c1 (stereo not given)
27 | > 44.3 µM (inactive) |  | COc1cc(C2C(C(C)=O)=C(O)C(=O)N2c2ccc(Br)cc2)ccc1O (stereo not given)
28 | inactive | 25.7 | COc1ccc(OC)c(C2/C(=C(\O)c3ccccc3)C(=O)C(=O)N2c2ccc(C)c(Cl)c2)c1 (stereo not given)
29 |  | 1.7 | COc1ccccc1-c1c(C(F)(F)F)oc2cc(OC(=O)c3ccco3)ccc2c1=O
30 | 4.7 µM | 7.2 | CCCCCCN1C(=O)C(=O)/C(=C(\O)c2ccccc2)C1c1ccc(O)c(OC)c1 (stereo not given)
31 | > 44.3 µM (inactive) |  | Cc1ccc(/C(O)=C2\C(=O)C(=O)N(Cc3cccnc3)C2c2ccc(Br)cc2)cc1 (stereo not given)
32 | > 44.3 µM (inactive) |  | COc1ccc(C2C(C(=O)c3cc4ccccc4o3)=C(O)C(=O)N2CCN(C)C)cc1OC (stereo not given)
33 | > 44.3 µM (inactive) |  | O=C(C1=C(O)C(=O)N(CCCn2ccnc2)C1c1cccnc1)c1ccco1 (stereo not given)
34 |  | 1.7 | O=C(Oc1ccc2c(=O)c(-c3ccccc3Cl)c(C(F)(F)F)oc2c1)c1cccs1
35 | > 44.3 µM (inactive) |  | COc1cc(C2C(C(=O)c3cc4ccccc4o3)=C(O)C(=O)N2CCN(C)C)ccc1O (stereo not given)
36 | 3.4 µM | 5.2 | COc1ccc(C2/C(=C(\O)c3ccccc3)C(=O)C(=O)N2CCCn2ccnc2)c(OC)c1 (stereo not given)
37 |  | 0.5 | CCc1cc2c(=O)c(-c3nc4ccccc4n3C)c(C)oc2cc1OC(C)=O
38 | > 44.3 µM (inactive) |  | COc1ccc(OC)c(C2/C(=C(\O)c3ccc(C)cc3)C(=O)C(=O)N2CCC(=O)O)c1 (stereo not given)
39 | > 44.3 µM (inactive) |  | COc1ccc(/C(O)=C2/C(=O)C(=O)N(CCc3c[nH]c4ccccc34)C2c2ccc(C(C)C)cc2)cc1 (stereo not given)
40 | > 44.3 µM (inactive) |  | COc1ccc(C2C(C(=O)c3ccco3)=C(O)C(=O)N2CCCN2CCOCC2)cc1OC (stereo not given)
